What was measured:
[1] = test system: BMDM obtained from C57/Bl6 (B6) mice; experiment: Flow cytometry and real-time PCR on B6 BMDM; type: cell-based, mouse
Procedure: At the mRNA level, MACTIDE‐V induced a clear increase in Il‐12, Chil3 and Nos2 genes, (Figure 6D, left panel). […] To further investigate whether the effect of MACTIDE‐V was mediated by YAP targeting, we analyzed a set of 7 YAP‐regulated genes (Figure 6D, right panel).
Figure S6. In vitro effect of MACTIDE-V on B6 mice-derived BMDMs. (A) Flow cytometry on BMDMs 48 h after treatment. GeoMean of MHC II in B6 BMDM, n=4 independent experiments. *p≤0.05. (B) Heatmap of the mRNA expression of genes involved in the functional activation of BMDM, measured by real-time PCR 48 h after treatment in B6 BMDM, n=2 independent experiments.

orthotopic 4T1.2 tumors = experiment: MACTIDE-V monotherapy in orthotopic 4T1.2; type: in vivo, Balb/c mice
Procedure: We evaluated the effect of MACTIDE‐V on tumor progression and metastasis in the highly metastatic orthotopic 4T1.2 model.^[ [33] ^] When tumors reached 55 mm^3 we began the treatment with MACTIDE‐V or CtrlPep‐V every other day until day 23, using the same dose used in section 5. […] No body weight loss was detected in any of the groups (Figure S7, Supporting Information).
Figure 7 MACTIDE‐V slows tumor growth and suppresses lung metastasis in orthotopic 4T1.2. 4T1.2 bearing mice were treated with 9 doses of CtrlPep‐V, MACTIDE‐V (1 mg Kg^−1 in Verteporfin per dose), or PBS i.p. every other day, while monitoring the primary tumor volume (A). Mice were sacrificed on day 25, tumor weights were measured (B) and pulmonary metastasis areas were quantified from H&E sections (C). D–G) Tumor cell suspensions were analyzed by flow cytometry (n = 4 per group). H) Representative mIHC images of PBS, CtrlPep‐V, and MACTIDE‐V treated tumors, scale bar = 100 µm. I) CD8^+ T cells, CD4^+ T cells, and Treg density obtained from mIHC images (n = 6 mice/group), with every dot representing the mean cell density of each tumor obtained from 20 images. Median ± interquartile range. One‐way ANOVA with multiple comparisons, ^* p ≤ 0.05, ^** p ≤ 0.01.
5×10^5 4T1.2 cells in 50 µL of PBS was injected subcutaneously to 4th mammary fat pad. On day 7, mice were sorted into groups based on tumor volume, ≈55—60 mm^3 calculated based on the formula shown above. Mice were treated every other day with 500 µL of MACTIDE‐V, CtrlPep‐V (30 nmol), and PBS, 9 injections in total, n = 10 mice/group. The cumulative Verteporfin dose was 9 mg kg^−1. The last injection was on day 23. Four mice from each group were sacrificed on day 25 through anesthetic overdose and their tumors were analyzed by flow cytometry (FC) and mIHC. The rest of the mice were left to continue in the study with the initial intention of performing a survival study, however, all of these mice were sacrificed within 5 days based on their tumor size (above 1500 mm^3) or cachexia.
For FC, mice were not perfused, the tumors were cut into small pieces, digested using 10 mL of collagenase IV (200 U mL^−1, Gibco, catalog no.17104019), dispase (0.6 U mL^−1, Gibco, catalog no. 17105‐041) and DNase I (15 U mL^−1, AppliChem, catalog no. A3778) mixture on a rotating platform for up to 60 min at 37 °C, pipetting every 10 min. Red blood cells were lysed using 3 mL of ammonium‐chloride‐potassium lysis buffer. After that, cells were centrifuged (350×g, 7 min, +4 °C), filtered (100 µm cell strainer, Falcon, catalog no. 352360), and counted using the bright‐field mode of LUNA Automated Cell counter (Logos Biosystems). Cells were seeded at a concentration of 5×10^6 cells/100 µL of running buffer (RB) (1L of RB: 4 mL 0.5M EDTA + 100 mL FBS + the rest PBS) on the 96‐well conical bottom plate and incubated for 15 min in dark at RT in 50 µL of Zombie NIR Fixable Viability Kit (BioLegend). After that, 30 µL of blocking antibody (TruStain FcX, Biolegend) was added and incubated for 10 min in the dark at +4 °C. Then, to stain macrophages, 20 µL of antibody mixture was added, and incubated for 25 min in the dark at +4 °C after which 50 µL of RB was added, centrifuged, washed two times with 150 µL of RB, and taken up in 150 µL of RB. For intracellular staining, cells were fixed and permeabilized using the eBioscience Foxp3/Transcription Factor Staining Buffer Set (Thermofisher). Cells were then stained with 100 µL of antibody mixture and incubated for 40 min in the dark at RT. Cells were centrifuged, washed twice with 150 µL of RB, and resuspended in 150 µL of RB. Samples were analyzed using the SONY ID7000 spectral flow cytometer and the accompanying software (Table 4 ).
To determine the pulmonary metastatic area, lungs from MACTIDE‐V monotherapy were stained for hematoxylin and eosin according to the following protocol. […]

[2] = test system: primary human macrophages; experiment: Cytokine secretion by primary human macrophages (bead-based multiplex panel); type: cell-based; conditions: 10 µM 4 h, washed, 48 h, supernatant, n = 3
Procedure: To investigate potential off‐target risk in vivo caused by MACTIDE‐V we analyzed the serum levels of the hepatic enzyme alanine aminotransferase (ALAT) following a 3 mg Kg^−1 dose of MACTIDE‐V in healthy mice. If MACTIDE‐V causes off‐target inflammation, it would likely occur in the liver (the organ that expresses the MACTIDE receptor) and would reflect on ALAT levels (liver inflammation produces a > 2‐fold increase in ALAT^[ [35] ^]).
Figure S9. Quantification of cytokines from the supernatant of primary human macrophages treated with MACTIDE-V. Primary human macrophages (obtained from monocytes derived from human blood buffy coat) were incubated with 10µM MACTIDE-V for 4 h, followed by 2 washes with media, the cells were then placed in new media and cultured for an additional 48 h. Then, the supernatant was collected and analyzed for cytokine expression using a bead-based multiplexed cytokine panel assay (Biolegend, cat# 740502) following the manufacturer’s instructions. Anova Fisher LSD (n=3).

[3] = tumor flow cytometry, n = 4 per group

Vert‐Ahx‐G(CTKSIPPIC)SPGAK‐OH (disulfide) [MACTIDE‐V]
MHCII expression in B6 BMDM (GeoMean) ([1]; flow cytometry 48 h after treatment, n = 4): increased MHCII expression
inflammatory gene mRNA expression in B6 BMDM ([1]; real-time PCR 48 h after treatment, n = 2): upregulated the inflammatory genes Il‐1b, Il‐12 and Nos2
primary tumor volume (orthotopic 4T1.2 tumors; 9 doses i.p. every other day, 30 nmol (1 mg Kg^−1 in Verteporfin per dose), 4 weeks after tumor induction, versus CtrlPep‐V and PBS): significantly smaller tumor volumes
pulmonary metastasis (orthotopic 4T1.2 tumors; 9 doses i.p. every other day, 1 mg Kg^−1 in Verteporfin per dose, area from H&E sections): fewer pulmonary metastasis
endpoint tumor weights (orthotopic 4T1.2 tumors; 9 doses i.p. every other day, 1 mg Kg^−1 in Verteporfin per dose, sacrifice day 25): smaller endpoint tumor weights
CD4^+ T cell density (mIHC) (orthotopic 4T1.2 tumors; compared to CtrlPep‐V and PBS, n = 6 mice/group): significant increase in CD4^+ T cell density
Treg density (mIHC) (orthotopic 4T1.2 tumors; n = 6 mice/group): no differences in Treg density
MHC II^−CD206^+ subset of TAM/monocytes (orthotopic 4T1.2 tumors; [3]): decreased
PD‐1 expression in CD8^+ and CD4^+ T cells (orthotopic 4T1.2 tumors; [3]): decrease in PD‐1 expression
percentage of MHCII^+CD206^+ TAM/monocytes (orthotopic 4T1.2 tumors; [3]): increased
tumor‐infiltrating B cells (orthotopic 4T1.2 tumors; [3]): no change
proportion of tumor‐infiltrating T cells and NK cells (orthotopic 4T1.2 tumors; tumor flow cytometry, with respect to CtrlPep‐V and PBS, n = 4 per group): rise in the proportion
secretion of IFN‐γ [2]: did not significantly increase
secretion of IL‐1RA [2]: significantly decreased
secretion of IL‐12 [2]: significantly increased
secretion of IL‐23 [2]: significantly increased
secretion of TNF‐α [2]: did not significantly increase

Source: PMC11904948, “Peptide‐Drug Conjugate for Therapeutic Reprogramming of Tumor‐Associated Macrophages in Breast Cancer” (Advanced Science, 2025)
